For 69 compounds, cytotoxicity results are on record in ChEMBL document CHEMBL3507680, “University of Dundee, Gates Library screen for HepG2 cell viability”.

This series is described as follows: Human HepG2 cell viability assay in 384 well format. Format: toxicity, cell-based. Further details: dose 125 nL, time 70.5 hour; concentration not given beside the values. Conditions: HepG2 cells, read-out: Inhibition.
Regarding `CNC(=O)C1CNCCN1C(=O)c1ccc(C(F)(F)F)nc1C` (centres undefined), the cytotoxicity at 70.5 h was -5.69%.

Consider `CC(=O)N1CCCN(c2nccc(-c3c(C)nn(C)c3C)n2)CC1`, for which the cytotoxicity at 70.5 h is -3.87%.

Consider `O=C(C1CCCC1)N1CCCC(c2nc(O)cc(-c3ccncc3)n2)C1` (centres undefined), for which the cytotoxicity at 70.5 h was 5.93%.

In the case of `CC(=O)Nc1ccc(C(=O)NCCCn2cccc2)cc1`, the cytotoxicity at 70.5 h is -14.1%.

For the compound `CC(C)[C@H](NC(=O)NC1CCS(=O)(=O)C1)C(=O)NCc1cccnc1` (some centres undefined), the cytotoxicity at 70.5 h came to 6.1%.

Regarding `Cc1ccsc1CN(C)CCc1scnc1C`, the cytotoxicity at 70.5 h is 14.4%.

Turning to `Cc1cc(=O)[nH]c(=O)n1-c1cccc(Cl)c1Cl`, the cytotoxicity at 70.5 h is -12.3%.

Regarding `Cc1nc(C2CCCN2Cc2nc(C3CC3)no2)no1` (centres undefined), the cytotoxicity at 70.5 h is -2.5%.

For `COc1cccc2c1OCC(Cc1cc(C(=O)N3CCCC3)ccn1)C2` (centres undefined), the cytotoxicity at 70.5 h is -16.5%.

Take `NCc1cc(NCC(c2ccccn2)N2CCOCC2)ncn1` (centres undefined): the cytotoxicity at 70.5 h was -6.83%.

`CN(C)C(=O)COCC1CN(Cc2cccs2)Cc2ncn(C)c21` (centres undefined): the cytotoxicity at 70.5 h worked out at 17.3%.

Turning to `CC(C(=O)NCc1ccnc(N2CCN(C)CC2)c1)n1cccn1` (centres undefined), the cytotoxicity at 70.5 h is -5.91%.

With `COc1c(C2CCCN2C(=O)c2ccc(Cl)o2)c(C)nn1C` (centres undefined), the cytotoxicity at 70.5 h was -5.88%.

Regarding `O=C(Cc1cccs1)N1C[C@@H]2CC[C@H](C1)N(Cc1ccccn1)C2=O`, the cytotoxicity at 70.5 h is -10.5%.

Take `COCCNC(=O)c1cc(S(=O)(=O)N2CCCC2)cs1`: the cytotoxicity at 70.5 h worked out at 14.3%.

For the compound `CC(C)OCCCNC(=O)C1CCC(=O)N(C2CCCC2)C1` (centres undefined), the cytotoxicity at 70.5 h was 17.3%.

As for `O=C1CC(c2cccnc2)c2c(c(C(=O)O)cn2-c2cccc(F)c2)N1` (centres undefined), the cytotoxicity at 70.5 h is -8.96%.

`CC(C)NC(=O)NCCCc1cccc(F)c1`: the cytotoxicity at 70.5 h is 0.142%.

For the compound `CCOC1CCC2(CCN(C(=O)c3csnn3)CC2)c2ccccc21` (centres undefined), the cytotoxicity at 70.5 h was found to be 36.5%.

For the compound `CCOCC1CN(S(=O)(=O)c2cccc(C)c2)Cc2nccn2C1` (centres undefined), the cytotoxicity at 70.5 h was -8.99%.

Take `CN1Cc2ccccc2N(CC(O)C(F)(F)F)CCC1=O` (centres undefined): the cytotoxicity at 70.5 h is -6.68%.

For `Cc1ccc([C@@H]2CN(S(=O)(=O)C(C)C)C[C@H]2N(C)C)cc1`, the cytotoxicity at 70.5 h was -12.5%.

Turning to `Cc1cc(C(=O)N2CCN(C)CC2)nn1CC(=O)NCc1cccs1`, the cytotoxicity at 70.5 h is -4.64%.

Turning to `CCC(=O)N1CCCCC1c1nc(O)c2c(n1)CN(S(=O)(=O)CC)CC2` (centres undefined), the cytotoxicity at 70.5 h is -13.9%.

On to `Cc1cc(N2CCC(N(C)C(=O)c3sccc3C)CC2)nc(C)n1`, for which the cytotoxicity at 70.5 h was -4.75%.

For `O=C(N[C@@H]1CN(Cc2cccc(F)c2)C[C@H]1O)c1cscn1`, the cytotoxicity at 70.5 h was -4.57%.

Regarding `CC(=O)NCCc1ccc(S(=O)(=O)N(CC(C)C)C(C)C)s1`, the cytotoxicity at 70.5 h was 33%.

Regarding `CN1C[C@@H](COCC2CC2)[C@H]2CCN(Cc3ccco3)CC[C@H]2C1=O`, the cytotoxicity at 70.5 h was -5.7%.

As to `Cc1nsc(NC(=O)NC2(CN3CCOCC3)CCCCC2)n1`, the cytotoxicity at 70.5 h was 1.42%.

In the case of `COc1ccc(NC(=O)CCSc2ccc3nncn3n2)c(OC)c1`, the cytotoxicity at 70.5 h was -11.8%.

Regarding `O=C1NCC2(CCCN(Cc3ccccc3OCCO)C2)O1` (centres undefined), the cytotoxicity at 70.5 h was -8.84%.

Turning to `CCCNC(c1cccnc1)c1ccc(F)cc1F` (centres undefined), the cytotoxicity at 70.5 h was 42.9%.

As for `CCC1=NC2(CCC(C(=O)Nc3ccc(C)nc3)CC2)C(=O)N1C` (centres undefined), the cytotoxicity at 70.5 h is -2.35%.

With `CN1CCCCC1CCC(=O)NCCCn1ncc2ccccc21` (centres undefined), the cytotoxicity at 70.5 h is -3.92%.

Consider `CCC(=O)N1CCC2(CC1)CC(CC(=O)N(C)C)c1ccc(F)cc12` (centres undefined), for which the cytotoxicity at 70.5 h is -1.89%.

For `CCOc1cc(C)nc(N2CCN(C(=O)c3cc(C)on3)CC2)n1`, the cytotoxicity at 70.5 h is -1.38%.

`CC(C)CN1C[C@@H]2CN(c3cnccn3)C[C@@H]2C1=O`: the cytotoxicity at 70.5 h was 29.2%.

For the compound `CCc1cccc(OCC(=O)N2CCCC(n3cncn3)C2)c1` (centres undefined), the cytotoxicity at 70.5 h was -9.33%.

`CCc1cc(NC(=O)C2CCCN(C(=O)NCC(C)C)C2)[nH]n1` (centres undefined): the cytotoxicity at 70.5 h is -17.1%.

For the compound `Cc1cccc(SC2CCN(Cc3nc(CC4CC4)no3)CC2)c1`, the cytotoxicity at 70.5 h was determined as 0.0623%.

As to `COc1cc(CN(C)C(=O)NCc2cccnc2OC)ccc1SC`, the cytotoxicity at 70.5 h was -0.299%.

As for `CCOc1ccccc1NC(=O)CN(C)Cc1ccccc1Cl`, the cytotoxicity at 70.5 h is -0.249%.

For the compound `Cc1cccc(C)c1NC(=O)CC(CN1CCN(C)CC1)C(=O)O` (centres undefined), the cytotoxicity at 70.5 h is -15.8%.

In the case of `CCN(CC1CCOCC1)C(=O)Cn1ccccc1=O`, the cytotoxicity at 70.5 h is -9.29%.

For the compound `Cc1cccc(C2(CNC(=O)c3ccnc(N(C)C)c3)CCOCC2)c1`, the cytotoxicity at 70.5 h is 15.5%.

`CSc1ncccc1C(=O)N1C[C@H]2CC[C@@H]1CN(c1ncccn1)C2`: the cytotoxicity at 70.5 h is -10.3%.

Take `Cc1ccc(C(=O)N2CCCC(Cn3cc(C(C)(C)N)nn3)C2)s1` (centres undefined): the cytotoxicity at 70.5 h is -4.81%.

Regarding `Cc1nc(O)c2nnn(C[C@H]3CCCN3C(=O)CCC3CCCC3)c2n1`, the cytotoxicity at 70.5 h worked out at 5.57%.

As for `COCCC(=O)N1CCC(c2nc(O)cc(-c3ccncc3)n2)C1` (centres undefined), the cytotoxicity at 70.5 h was -11.8%.

With `CC(=O)N[C@H]1CCO[C@@H](c2cccc(NC(=O)c3cccc(F)c3)c2)C1`, the cytotoxicity at 70.5 h is -8.41%.

As to `COc1nccnc1N1CCC(C(=O)O)(n2ccc(C(C)(C)C)n2)CC1`, the cytotoxicity at 70.5 h is -10.8%.

As to `Cc1cc(NC(=O)CNC2CCc3ncnn3C2)no1` (centres undefined), the cytotoxicity at 70.5 h is -18.6%.

In the case of `O=C(c1ccccc1)N1CCC[C@]2(C[C@@H](Oc3ncccc3F)CO2)C1`, the cytotoxicity at 70.5 h came out at 23.2%.

Regarding `O=C1CC[C@]2(CC[C@@H](NCc3ccc4c(c3)OCO4)CC2)N1`, the cytotoxicity at 70.5 h amounted to 19.9%.

For the compound `COc1cccc2c1OCCCN(Cc1c[nH]nc1C(=O)O)C2`, the cytotoxicity at 70.5 h was -9%.

`c1cc(NCc2ccncc2)nc(C2CCCNC2)c1` (centres undefined): the cytotoxicity at 70.5 h was -1.2%.

On to `CC1(C(=O)NCc2ccsc2)CCOCC1`, for which the cytotoxicity at 70.5 h was -8.16%.

Take `CC(=O)NCCNC(=O)c1cc(COc2ccccc2)[nH]n1`: the cytotoxicity at 70.5 h was 1.84%.

As for `C=C(C)CN1CCC(NC(=O)Nc2ccc(F)c(C(=O)NC)c2)CC1`, the cytotoxicity at 70.5 h amounted to 21.9%.

As to `O=C(c1cnoc1)N1CCC[C@]2(C[C@@H](Oc3ccccn3)CO2)C1`, the cytotoxicity at 70.5 h is -6.93%.

As for `Cc1ccc(CN2CCCN(Cc3cscn3)CC2)cc1`, the cytotoxicity at 70.5 h came to 3.58%.

For `Cc1nccn1-c1cccc(C2CCCN(C3CCCC3)C2)n1` (centres undefined), the cytotoxicity at 70.5 h is -4.43%.

On to `Nc1nc(CCC(=O)N2C[C@H](c3ccccc3)[C@@H](N)C2)cs1`, for which the cytotoxicity at 70.5 h was -20.5%.

For `CCC(CC)NC(=O)c1nc2n(n1)-c1ccccc1S(=O)(=O)N2`, the cytotoxicity at 70.5 h was -82.7%.

With `CCS(=O)(=O)N[C@@H]1CN(Cc2cc(C)on2)C[C@@H]2CCCO[C@@H]21`, the cytotoxicity at 70.5 h is -10.1%.

As for `Cc1ccc(CNC(=O)CN2CCOC(Cn3cncn3)C2)s1` (centres undefined), the cytotoxicity at 70.5 h was -2.32%.

As for `Cc1ccc(N(C)C2CCN(C(=O)c3n[nH]c4c3CCC4)CC2)nn1`, the cytotoxicity at 70.5 h was -3.25%.

In the case of `O=C(Nc1ccccc1)N1C[C@H]2C[C@H](C(=O)N3CCOCC3)[C@@H](C1)O2`, the cytotoxicity at 70.5 h is -6.84%.

Turning to `O=C(O)c1nnn(-c2cccc(C(F)(F)F)c2)c1C1CC1`, the cytotoxicity at 70.5 h is -3.12%.
